# Columns and labels:
# [1] = system: 139 kinds of tested bacilli; experiment: Susceptibility test of antibiotics to bacilli in mouth; format: cell-based
# Procedure: (§1) At first, the minimal inhibitory concentration (hereinafter it is abbreviated to MIC) of minocycline for bacilli, especially Antinobacillus actinomycetemcomitans as main bacillus and the minimum period to optimum treatment effect with MIC were examined. […] Also, it was reported by Goodson et al. that the concentration more than MIC has to be sustained to inhibit growth of periodontal bacillus for at least 48 hours, especially at least 10 days for optimum treatment effect. Accordingly, local drug delivery should sustain the concentration of minocyclne in the periodontal pocket at least 4 μg/ml for at least 48 hours, and especially more than 10 days to optimize treatment effect. So the present local drug delivery was examined to learn if it coincided with the standard or not.
# [2] = system: human gingival fibroblast; experiment: Rapid colorimetric assay for cellular growth survival (MTT)
# Procedure: The floating solution obtained was devided into microtest plate well (obtained from Nuck, Denmark) as much as 2.5×10cell/well using the standard blood corpuscle calculation method so that MEM containing 10% fatal calf serum, peniciline 10 units/ml, streptomycine 100 μg/ml and fungizone 0.2 μl/ml became containing 2500, 5000, 10000, 15000, 20000, and 30000 cell per 200 ml and the resulting solution was incubated. Culture solution was changed next day. After 2 days, culture solution was removed and washed with HBSS. […] This was incubated in incubator at 37° C. […] As control group, MEM culture solution well was used every test. All test results were calculated as percentage unit to control group.
# [3] = system: human gingival fibroblast; experiment: Cytotoxic inhibition activity, [3H]-thymidine incorporation
# Procedure: Human gingival fibroblast was cultivated and divided into 24 multi-well dish as much as 1×10 ^5 cell/well each. Medium was chant ed next day. After 3 days, medium was removed and washed with Hank's balanced salt solution (hereinafter it is abbreviated to HBSS). […] After 2 hours, said solutions were stood at 4° C. for 10 min using ice cold 5% Trichloroacetic acid (TCA) 3 ml. After washing 3 or 4 times with TCA, removed TCA, and dissolved gingival fibroblast by 0.5N-NaOH 1 ml at 37° C. for 30 min. 50 μl of said solution was taken, added 4 ml of cocktail solution to said solution and count per minute was measured by liquid scintillation counter.
# [4] = system: Actinobacillus actinomycetemcomitans; experiment: Susceptibility test of antibiotics / MIC of minocycline; format: cell-based
# Procedure: as §1
compound,measurement,setting,value
CN(C)c1ccc(O)c2c1C[C@H]1C[C@H]3[C@H](N(C)C)C(=O)C(C(N)=O)=C(O)[C@@]3(O)C(=O)C1=C2O [minocycline],tested bacilli that showed susceptibility,[1],98%
same,difference in cell activity according to minocycline concentration,[2],difference in cell activity according to concentration of minocycline was not observed
same,growth of gingival fibroblast,[3]; 160 μg/ml to 2560 μg/ml,growth of gingival fibroblast was not inhibited
same,growth inhibition of gingival fibroblast,[3]; observation for 7 days,statistical singnificance about growth inhibitory of gingival fibroblast was not observed
same,break point of minocycline concentration to periodontal treatment,[4],2 to 4 µg/mL
same,MIC,"[4]; Aggregatibacter actinomycetemcomitans, read-out: concentration of minocycline at which susceptibility is shown",2 to 4 µg/mL

# Reference: US5599553A, “Local drug delivery film for periodontal treatment” (Dong Kook Pharmaceutical Co., Ltd., priority 1992, dated 1997)
